Laboratory results as given in patent publication US7645788B2, “Tetramerous derivative of indole-3-carbinol with anti-carcinogenic activity and method of synthesis of said derivative” (Universita' Degli Studi Di Urbino, priority 2001, dated 2010).

Experiments:
[1] = tested on: cyclin-dependent kinase cdk6; experiment: Western blot, level of expression of cdk6 in MCF-7; assay type: cell-based, human; conditions: FIG. 6
Text: (§1) SDS-PAGE (Laemmli U.K. 1970, Nature 227, 680-685) and Western Blot (Towbin H., Staehelin T., Gordon J. 1979, Proc. Natl:Acad. Sci. USA 76, 4350-4354) techniques have been used to analyze the expression of proteins known as fundamental targets (markers) in the control of the cellular cycle, whose modifications often lead to an uncontrolled cell proliferation: cyclin-dependent kinase cdk6 (Cover C. M., et al, 1998, J. Biol. Chem. 273, 3838-3847), inhibitor p27 (Wang X., et al., 1997, Oncogene 15, 2991-2997; Vidal A., Koff A. 2000, Gene 247, 1-15) and retinoblastoma Rb (Dyson N. 1998, Genes & Development 12, 2245-2262; Guardavaccaro D., et al., 2000, Mol. Cell. Biol. 20 (5), 1797-1815).
(§2) After growing the cells as previously described, the cell cultures undergo the action of increasing doses of tetramerous derivative. Then culture samples are taken and the cells are lysated with B buffer (Hepes 20 mM pH 7.5, NaCl 420 mM, MgCl2 1.5 mM, EDTA 0.2 mM, glycerol 25%) in presence of antiproteolytic agents Nonidet P40 0.5% (v/v), kept under ice for 20 minutes and centrifuged at 12,000 rpm for 10 minutes at 4° C.
(§3) The cell lysate (supernatant liquor) is then diluted 1:1 with Sample Buffer 2× and charged into SDS-PAGE at 12% of acrylamide following Laemmli's method (Laemmli U.K. 1970, Nature 227, 680-685). […]

inhibitor p27 [2] = experiment: Western blot, p27 in MDA-MB-234; assay type: cell-based, human
Text: as §1
as §2, with “C. […]” for “C.”
(§4) Said markers are then evaluated as previously described on estrogen-negative cell line MDA-MB-234.

inhibitor p27 [3] = experiment: Western blot, level of protein p27 in MCF-7; assay type: cell-based, human; conditions: MCF-7, same concentrations as for cdk6, FIG. 7
Text: as §1, §2, §3

MCF-7 cells = experiment: Cytotoxicity, vital cell count with trypan blue; assay type: cell-based, human
Description: (§5) In a second set of tests the activity of the tetramerous derivative on the two cell lines has been evaluated as cytotoxicity using a method (Magnani M. et al., 1995, Biochemical Journal no. 312, page 115-123) which allows to recognize vital from dead cells.
(§6) MCF-7 and MDA-MB-234 cells have been grown as previously described. Then, after 24 and after 72 hours of exposition to the tetramerous derivative they are taken and counted in duplicate in a hemocytometer using trypan blue dye to exclude dead cells.

MDA-MB-234 cells = experiment: Cytotoxicity, vital cell count with trypan blue; assay type: cell-based, human; conditions: MDA-MB-234, FIG. 4
Description: as §5, §6

[4] = tested on: MDA-MB-234 cells (negative for estrogen receptors); experiment: Anti-proliferative effect, [3H]-thymidine incorporation into DNA; assay type: cell-based, human; conditions: line MDA-MB-234, increasing concentrations, up to 72 hours, FIG. 2
Description: (§7) The activity of the tetramerous derivative has been evaluated both in breast cancer cells grown in laboratory expressing estrogen receptors (line MCF-7) and in cells which are negative for said receptors (line MDA-MB-234).
(§8) MCF-7 and MDA-MB-234 cells have been grown in laboratory in a DMEM medium added with 10% of bovine fetal serum, 1% of a penicillin-streptomycin solution, 1% of a solution of non-essential amino acids, 2 mM glutamine and for MCF-7 also with 10 ug/ml of insulin. For the tests the cells are taken and used in their logarithmic growth phase, suspending them again the same fresh medium and exposing them to the tetramerous derivative up to 72 hours at 37° C. in an atmosphere with 5% of CO2. Before the treatment the cells are grown for some hours so as to adhere well to the plastic and start proliferating. In the tests concerning the evaluation of the anti-proliferative activity the synthesis of DNA is evaluated by adding to the cultures 3 μCi/ml of [3H]-thymidine 6 hours before the end of the treatment.
(§9) The cells are exposed during the culture to increasing concentrations of tetramerous derivative, then evaluating the degree of inhibition of their proliferation by incorporating into the DNA tritium-added thymidine (Cover C. M. et al., 1998, Journal of Biological Chemistry no. 273, page 3838-3847).

[5] = tested on: MCF-7 cells (breast cancer cells expressing estrogen receptors); experiment: as above; assay type: cell-based, human; conditions: line MCF-7, increasing concentrations, up to 72 hours, FIG. 1
Description: as §7, §8, §9

retinoblastoma Rb = experiment: Western blot, phosphorylation of Rb factor (pRb); assay type: cell-based; conditions: Homo sapiens, FIG. 9
Text: as §1, §2, §3

enzyme cdk6 = experiment: Western blot, cdk6 in MDA-MB-234; assay type: cell-based, human
Text: as §1
as §2, with “C. […]” for “C.”
as §4

With `c1ccc2c3c([nH]c2c1)Cc1c([nH]c2ccccc12)Cc1c([nH]c2ccccc12)Cc1c([nH]c2ccccc12)C3` [tetramerous derivative] the “level of expression of cdk6” value ([1]; MCF-7, 15 μM) was “great reduction”, the “level of expression of cdk6” value ([1]; MCF-7, 50 μM) was “sudden decrease” and the “level of inhibitor p27” value (inhibitor p27 [2]) was “increase”. The “level of protein p27” value (inhibitor p27 [3]) was “increases”, the “toxicity (percentage of vital cells) in relation to time of administration” value (MCF-7 cells; MCF-7, 24 and 72 hours, FIG. 5) was “time-dependent” and the “toxicity (percentage of vital cells) in relation to amount administered” value (MCF-7 cells; MCF-7, FIG. 3) was “dose-dependent”. The “toxicity (percentage of vital cells) in relation to amount administered” value (MDA-MB-234 cells) was “dose-dependent”, the “inhibition of cell proliferation” value [4] was “inhibits in a dose-dependent way” and the “inhibition of cell proliferation” value [5] was “inhibits in a dose-dependent way”. The inhibition at 30 µM (retinoblastoma Rb) was 60% and the “level of enzyme cdk6” value (enzyme cdk6) was “reduction”.
